Measured values reported in US20020019533A1, “PIPERIDINE DERIVATIVES AND ANTI-PLATELET AGENTS CONTAINING THE SAME” (priority 1994, published 2002).

Key:
platelet of SD rats = test: In vitro anti-platelet effect: platelet aggregation induced by ADP + serotonin in rat platelet rich plasma; format: cell-based; conditions: rat PRP, 0.5 μM or 0.8 μM ADP + serotonin, 50% inhibition of the serotonin-caused increase in aggregation
Protocol: The anti-platelet effect due to the serotonin antagonistic activity was measured in vitro using the platelet of SD rats (body weight: about 300 to 400 g, male). Platelet rich plasma (PRP) and platelet poor plasma (PPP) were prepared from blood with 0.38% sodium citrate which was obtained from aorta abdominalis of a rat under diethyl ether anesthesia. The platelet concentration of PRP was adjusted to 5×10^8 platelets/ml by adding PPP. Then, the test compound dissolved in 0.4% aqueous ethanol was added, and the mixture was incubated at 37° C. for 3 minutes. The platelet aggregation induced by addition of 0.5 μM or 0.8 μM adenosine diphosphate (ADP)+ serotonin was measured as an increase in optical transmittance of PRP. The concentration of the test compound which inhibits 50% of the increase in platelet aggregation which is obtained with serotonin without a test compound was measured, and its negative logarithm (pIC50) was calculated.

serotonin 2 receptor = molecular target: T1, serotonin 2 receptor (Bos taurus, UniProt Q75Z89); test: Binding affinity to the serotonin 2 receptor, [3H]-ketanserin, bovine cerebral cortex membrane; conditions: negative logarithm of Ki, 3 nM [3H]-ketanserin, 25° C., 30 minutes
T1 construct: evaluated using a bovine cerebral cortex membrane sample; from tissue; host or cells: bovine cerebral cortex membranes
Protocol: The binding affinity to the serotonin 2 receptor was evaluated using a bovine cerebral cortex membrane sample. To 200 μl of a bovine membrane sample adjusted to 50 mg (wet weight) membrane/ml were added 200 μl of 3 nM [^3H]-ketanserin and 200 μl of a test compound solution prepared by dissolving a test compound in 1.7% ethanol, followed by mixing. The mixture was incubated at 25° C. for 30 minutes and filtered with a glass filter. The radioactivity trapped on the filter was measured with a liquid scintillation counter. The non-specific binding was defined by 10^−6 M LY53857. The concentration of the test compound which inhibits 50% of the specific binding of [^3H]-ketanserin (i.e., IC50 value) was obtained, and the Ki value was calculated in accordance with the following equation. The results are shown as the negative logarithm of the Ki value (i.e., pKi value). [formula]
In the equation, Ki indicates the dissociation constant and [L] indicates the concentration of [^3H]-ketanserin.

[1] = system: platelet aggregation by serotonin; test: In vivo anti-platelet effect after oral administration: ADP + serotonin induced aggregation of PRP taken 2 hours after dosing; design: species or system SD rats; conditions: 2 hours after administration, arabic gum group = 100%, n=3
Protocol: The anti-platelet effect due to the serotonin antagonistic activity was measured in vivo using SD rats (body weight: about 210 to 330 g, male). Two hours after the administration of the test compound, the rat was anesthetized with diethyl ether and platelet rich plasma (PRP) and platelet poor plasma (PPP) were prepared from blood with 0.38% sodium citrate which was obtained from aorta abdominalis of the rat. The platelet concentration of PRP was adjusted to 5×10^8 platelets/ml by adding PPP. Then, the PRP was incubated at 37° C. for 3 minutes, and platelet aggregation induced by addition of 0.7 μM adenosine diphosphate (ADP)+ serotonin was measured as an increase in optical transmittance of PRP. The aggregation occurred by addition of ADP alone and the maximum aggregation ratio by the simultaneous addition of ADP and serotonin were measured with respect to each group, and increase in aggregation caused by serotonin was calculated. The increase in aggregation caused by serotonin in the arabic gum administered group was taken as 100%, and the effect of the test compound was judged using as an index the increase in aggregation caused by the serotonin in the test compound-administered group (n=3).

[2] = system: head twitch of mouse induced by 5-hydroxytryptophan (5HTP); test: Inhibiting effect on head twitch of mouse induced by 5-hydroxytryptophan (5HTP); format: in vivo, ICR mouse; conditions: oral, 90 minutes before 5HTP (180 mg/kg i.p.); 50% inhibition of the number of head twitches
Protocol: The serotonin antagonistic activity in the central nerve system was evaluated by measuring the inhibiting effect on head twitch of mouse induced by 5-hydroxytryptophan (5HTP) A test compound in an amount of 1, 3, 10, or 30 mg was respectively dissolved in 100 ml of water and, 90 minutes before 5HTP administration, the solution (10 ml/kg body weight) was orally administered to a ICR mouse (body weight: 27 to 32 g, male) fasted from the previous day. As a control, 5% arabic gum was used. Carbidopa (6 mg/kg) was subcutaneously administered and, after 15 minutes, 5HTP (180 mg/kg) was intraperitoneally administered. From the 15 minutes after 5HTP administration, the number of head twitches occurred within 2 minutes were counted. The concentration of the test compound which inhibits 50% of the number of head twitches in the 5% arabic gum administered group was obtained.

T1 sequence (Q75Z89 whole entry): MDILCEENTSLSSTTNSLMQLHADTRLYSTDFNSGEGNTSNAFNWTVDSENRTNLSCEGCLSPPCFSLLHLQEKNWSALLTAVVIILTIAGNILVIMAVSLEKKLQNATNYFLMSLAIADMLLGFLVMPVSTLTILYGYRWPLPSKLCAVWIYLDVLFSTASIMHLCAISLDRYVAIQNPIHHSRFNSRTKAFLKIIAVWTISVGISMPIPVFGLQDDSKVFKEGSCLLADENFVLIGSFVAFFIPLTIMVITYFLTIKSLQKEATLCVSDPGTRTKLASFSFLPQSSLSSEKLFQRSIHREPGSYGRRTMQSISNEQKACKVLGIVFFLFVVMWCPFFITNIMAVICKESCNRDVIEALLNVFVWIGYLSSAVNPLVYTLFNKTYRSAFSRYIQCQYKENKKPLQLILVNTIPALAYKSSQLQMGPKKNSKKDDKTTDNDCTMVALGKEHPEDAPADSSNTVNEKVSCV

pIC50 (platelet of SD rats) | pKi (serotonin 2 receptor) | SMILES | other results
7.2 | 9.8 | O=CNCCCC(=O)NCCN1CCC(=C2c3ccccc3C=Cc3ccccc32)CC1 [Compound 24] | –
6.6 | – | CNCCCC(=O)NCCN1CCC(=C2c3ccccc3C=Cc3ccccc32)CC1 [Compound 28] | –
6.6 | 7.9 | CC(=O)NCC(=O)N1CCC(C(=O)NCCN2CCC(=C3c4ccccc4C=Cc4ccccc43)CC2)CC1 [Compound 8] | –
– | – | O=CN1CCC(C(=O)NCCN2CCC(=C3c4ccccc4C=Cc4ccccc43)CC2)CC1 [Compound 3] | IC50 (platelet of SD rats; Platelet): 63.1 nM; Increase in aggregation by serotonin ([1]; 0.1 mg/kg oral): 75.7%; Increase in aggregation by serotonin ([1]; 0.3 mg/kg oral): 57.3%; Increase in aggregation by serotonin ([1]; 1 mg/kg oral): 24.3%; Increase in aggregation by serotonin ([1]; 3 mg/kg oral): 27%; Increase in aggregation by serotonin ([1]; 10 mg/kg oral): −2.7%; Ki (serotonin 2 receptor): 3.98 nM; ID50 [2]: 0.39 mg/kg
– | – | CN1CCC(=C2c3ccccc3C=Cc3ccccc32)CC1 [cycloheptadine, reference compound] | ID50 [2]: 0.12 mg/kg
6.6 | 9.2 | CC(=O)NCCCC(=O)NCCN1CCC(=C2c3ccccc3C=Cc3ccccc32)CC1 [Compound 25] | –
7.6 | – | NCCCC(=O)NCCN1CCC(=C2c3ccccc3C=Cc3ccccc32)CC1 [Compound 23] | –
6.5 | 8.0 | CC(C)(C)OC(=O)N1CCC(C(=O)NCCN2CCC(=C3c4ccccc4C=Cc4ccccc43)CC2)CC1 [Compound 5] | –
7.1 | – | CN(CCCC(=O)NCCN1CCC(=C2c3ccccc3C=Cc3ccccc32)CC1)C(=O)OC(C)(C)C [Compound 29] | –
6.5 | 7.8 | O=CNC1(C(=O)NCCN2CCC(=C3c4ccccc4C=Cc4ccccc43)CC2)CCCCC1 [Compound 21] | –
6.6 | 8.6 | NC1CCC(C(=O)NCCN2CCC(=C3c4ccccc4C=Cc4ccccc43)CC2)CC1 (centres unmarked) [Compound 12] | –
7.3 | 8.6 | O=C(NCCN1CCC(=C2c3ccccc3C=Cc3ccccc32)CC1)C1CCNCC1 [Compound 2] | –
5.8 | 8.2 | CN(C)C(=O)NC1(C(=O)NCCN2CCC(=C3c4ccccc4C=Cc4ccccc43)CC2)CCCCC1 [Compound 22] | –
6.9 | 9.2 | CN(C)C(=O)NCCCC(=O)NCCN1CCC(=C2c3ccccc3C=Cc3ccccc32)CC1 [Compound 27] | –
7.2 | – | CC(C)(C)OC(=O)NCCCC(=O)NCCN1CCC(=C2c3ccccc3C=Cc3ccccc32)CC1 [Compound 26] | –
6.4 | 8.3 | CC(=O)NC1(C(=O)NCCN2CCC(=C3c4ccccc4C=Cc4ccccc43)CC2)CCCCC1 [Compound 19] | –
– | 8.8 | CC(C)(C)OC(=O)NCCCN1CCC(=C2c3ccccc3C=Cc3ccccc32)CC1 [Compound 31] | –
7.6 | – | CCOC(=O)NCCN1CCC(=C2c3ccccc3C=Cc3ccccc32)CC1 [Compound 16] | –

SMILES | pIC50 (platelet of SD rats) | pKi (serotonin 2 receptor) | other results
O=CN1CCC(C(=O)NCCN2CCC(=C3c4ccccc4C=Cc4ccccc43)CC2)CC1 [Compound 6] | 6.9 | – | –
O=C(NCCN1CCC(=C2c3ccccc3C=Cc3ccccc32)CC1)C1CCCCN1 (centres unmarked) [Compound 9] | 7.1 | 7.8 | Increase in aggregation by serotonin ([1]; 0.3 mg/kg oral): 57.3%
CC(C)(C)OC(=O)NCCN1CCC(=C2c3ccccc3C=Cc3ccccc32)CC1 [Compound 17] | 7.0 | – | Increase in aggregation by serotonin ([1]; 0.3 mg/kg oral): 50.7%
CC(C)(C)OC(=O)NC1(C(=O)NCCN2CCC(=C3c4ccccc4C=Cc4ccccc43)CC2)CCCCC1 [Compound 20] | 6.3 | 8.0 | –
O=CN1CCN(C(=O)NCCN2CCC(=C3c4ccccc4C=Cc4ccccc43)CC2)CC1 [Compound 11] | 7.0 | 8.8 | –
C1=Cc2ccccc2C(=C2CCN(CCCCN3CCSCC3)CC2)c2ccccc21 [Compound 42] | 6.6 | 8.7 | –
NC1(C(=O)NCCN2CCC(=C3c4ccccc4C=Cc4ccccc43)CC2)CCCCC1 [Compound 18] | 7.3 | 8.9 | Increase in aggregation by serotonin ([1]; 0.3 mg/kg oral): 94.9%
C1=Cc2ccccc2C(=C2CCN(CCCCN3CCOCC3)CC2)c2ccccc21 [Compound 41] | 6.9 | 8.2 | Increase in aggregation by serotonin ([1]; 0.3 mg/kg oral): 91.5%
